Measured values reported in patent US20080070987A1, “META-XYLYLENEDIAMINE VANADATE SALTS” (priority 2006, published 2008).

What was measured:
[1] = molecular target: T1, Human SSAO/VAP-1 (Homo sapiens, UniProt Q16853); assay: Fluorimetric detection of SSAO-mediated H2O2 formation (Amplex Red), human recombinant VAP-1; format: biochemical; conditions: production of hydrogen peroxide; compounds at 1 mM
T1 sequence (Q16853 1-763): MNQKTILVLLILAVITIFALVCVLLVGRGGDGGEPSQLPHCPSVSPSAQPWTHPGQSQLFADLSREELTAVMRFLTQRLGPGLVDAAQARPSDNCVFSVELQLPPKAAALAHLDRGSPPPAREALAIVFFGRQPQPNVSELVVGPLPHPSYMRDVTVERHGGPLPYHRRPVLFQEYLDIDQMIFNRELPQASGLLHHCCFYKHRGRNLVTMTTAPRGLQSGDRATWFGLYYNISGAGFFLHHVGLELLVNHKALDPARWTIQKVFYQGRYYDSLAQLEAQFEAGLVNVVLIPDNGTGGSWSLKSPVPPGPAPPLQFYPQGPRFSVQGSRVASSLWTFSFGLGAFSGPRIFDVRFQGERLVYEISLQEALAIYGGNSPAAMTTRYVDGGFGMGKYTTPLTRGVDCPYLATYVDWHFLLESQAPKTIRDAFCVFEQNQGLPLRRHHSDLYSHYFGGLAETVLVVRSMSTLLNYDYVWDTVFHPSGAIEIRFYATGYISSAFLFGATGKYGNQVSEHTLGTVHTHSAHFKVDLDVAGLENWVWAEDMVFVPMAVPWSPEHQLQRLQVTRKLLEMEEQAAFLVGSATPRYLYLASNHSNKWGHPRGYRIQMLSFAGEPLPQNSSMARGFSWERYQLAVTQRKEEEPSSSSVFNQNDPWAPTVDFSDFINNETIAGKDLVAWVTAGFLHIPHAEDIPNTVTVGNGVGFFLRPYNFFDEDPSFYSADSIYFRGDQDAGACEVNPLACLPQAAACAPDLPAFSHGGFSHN
Method: (§1) The SSAO activity of human recombinant VAP-1 (0.1 μg prot/assay) and mouse adipose tissue membranes (1 μg prot/assay) was measured using Amplex Red Reagent, a highly sensitive and stable probe for H2O2. The reaction was performed in 200 μL of 0.2 mol/l phosphate buffer at pH 7.4 for 50 min at 37° C. in black non-phosphorescent microplates (Nunc). Catalytic reaction was initiated by the addition of the amines indicated as putative SSAO substrates and H2O2-detecting mixture containing horseradish peroxidase and Amplex Red, as previously described. Fluorescence intensity was measured (excitation, 545 nm, 590 nm, Bio-Tek fluorescence plate reader) and H2O2 concentration was calculated form calibration curves generated by serial dilutions of standard H2O2. Fluorescence readings were performed every 5 min. […] To test amines as putative SSAO inhibitors, they were pre-incubated for 20 min with semicarbazide, and their percentage of inhibition was calculated by referring to SSAO activity produced by benzylamine. The kinetic parameters Km and Vmax were calculated using appropriate non-linear curve-fitting formula based on the Michaelis-Menten equation and using GraphPad Prism 4.0 software.

[2] = molecular target: T2, Mouse SSAO/VAP-1 (Mus musculus, UniProt O70423); assay: Fluorimetric detection of SSAO-mediated H2O2 formation (Amplex Red), mouse adipose tissue membranes; format: biochemical; conditions: production of hydrogen peroxide; compounds at 100 μM
T2 construct: from tissue; host or cells: internal adipose tissue membranes of Swiss mice
T2 sequence (O70423 1-765): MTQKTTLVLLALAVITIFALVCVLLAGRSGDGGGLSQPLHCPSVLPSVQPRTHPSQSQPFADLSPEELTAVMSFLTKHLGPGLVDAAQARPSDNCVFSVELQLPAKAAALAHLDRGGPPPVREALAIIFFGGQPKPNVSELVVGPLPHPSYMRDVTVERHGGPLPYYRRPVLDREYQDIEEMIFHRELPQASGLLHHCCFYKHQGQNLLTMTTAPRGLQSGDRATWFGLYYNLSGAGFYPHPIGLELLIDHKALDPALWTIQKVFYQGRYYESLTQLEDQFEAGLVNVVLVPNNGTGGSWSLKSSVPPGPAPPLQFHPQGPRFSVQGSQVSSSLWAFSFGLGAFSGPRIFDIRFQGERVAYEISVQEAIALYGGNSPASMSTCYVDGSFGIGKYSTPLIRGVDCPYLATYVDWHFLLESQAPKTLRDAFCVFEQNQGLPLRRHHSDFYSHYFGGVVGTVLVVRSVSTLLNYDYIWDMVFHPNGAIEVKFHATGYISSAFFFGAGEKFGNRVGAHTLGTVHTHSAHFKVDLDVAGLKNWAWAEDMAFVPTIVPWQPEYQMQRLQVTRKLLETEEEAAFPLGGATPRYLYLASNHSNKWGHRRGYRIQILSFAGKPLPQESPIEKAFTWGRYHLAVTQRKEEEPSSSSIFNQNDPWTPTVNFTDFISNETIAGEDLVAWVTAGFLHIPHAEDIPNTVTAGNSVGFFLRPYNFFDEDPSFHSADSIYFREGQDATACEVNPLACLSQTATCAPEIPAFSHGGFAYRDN
Method: Internal adipose tissue was obtained from Swiss mice weighing between 20 to […]. […] The lysates were then centrifuged at 5000 g at 4° C. for 15 min to eliminate the fat cake and non-homogenized material, and supernatants were collected and centrifuged at 200000 g for 2 h at 4° C. Pelleted membranes were resuspended in 30 mmol/l HEPES and stored at −80° C. until use. Protein concentrations were measured by the Bradford method with γ-globulin as standard.
as §1

NCc1cccc(CNC(=O)c2ccc(O)cc2)c1 [Example 10, N-(3-(aminomethyl)benzyl)-4-hydroxybenzamide]
Human SSAO/VAP-1 activity % relative to benzylamine [1]: 5 ± 1% | Mouse SSAO/VAP-1 activity % relative to benzylamine [2]: 26 ± 1%
